This test addresses T1, human chemokine receptor CCR3 (Homo sapiens, UniProt P51677).
T1 construct: expressed in transfected cells; host or cells: K562 cell line (hCCR3-C1 cells), membrane preparation
T1 sequence (P51677 1-355): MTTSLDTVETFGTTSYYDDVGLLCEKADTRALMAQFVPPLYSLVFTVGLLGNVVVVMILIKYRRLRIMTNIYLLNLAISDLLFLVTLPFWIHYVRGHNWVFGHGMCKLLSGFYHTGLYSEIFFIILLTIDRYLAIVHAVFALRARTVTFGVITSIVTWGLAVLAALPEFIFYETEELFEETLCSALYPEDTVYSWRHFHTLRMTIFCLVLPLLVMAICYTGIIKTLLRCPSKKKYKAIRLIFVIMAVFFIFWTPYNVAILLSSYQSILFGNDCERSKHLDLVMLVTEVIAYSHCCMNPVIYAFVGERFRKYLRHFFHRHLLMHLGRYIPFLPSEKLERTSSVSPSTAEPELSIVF
Put plainly: CCR3 receptor binding assay (SPA, 125I-eotaxin-1 displacement, hCCR3-C1 K562 cell membranes). The conditions noted are these: human Eotaxin-1 at human CCR3-Rezeptor; for inhibition at 1 µM: read-out: CCR3 % inh @ 1 μM; for Ki: dose range 0.1 to 10000 nM. A digest of the protocol: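 SPA displacement of recombinant human 125I-eotaxin-1 (30.000 dpm per well) from membranes of CCR3-transfected K562 cells (0.5-10 μg protein/well) on WGA beads. Buffer was 25 mM HEPES, 25 mM MgCl2, 1 mM CaCl2, 0.1% BSA; incubation 2 h at room temperature. Specific binding was total minus NSB (unlabelled eotaxin-1), giving % inhibition and Ki.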

A word on the Ki: it is a measure of affinity in units of concentration, obtained from inhibition or displacement. Low readings indicate tighter binding, high ones weaker binding.

As for `Cc1cc(CN2CCC(N3C(=O)CC[C@@H]3C(=O)Nc3cccc(S(=O)(=O)N4CCCCC4)c3)CC2)ccc1Cl` [Example 22], affinity was put at a Ki of 13 nM. Also, the inhibition at 1 µM (1 μM test compound) was determined as 84%.
In the same order, the values of `COc1cc(NC(=O)[C@H]2CCC(=O)N2C2CCN(Cc3ccc(Cl)c(C)c3)CC2)ccc1N1CCCCC1=O` [Example 34] are 152 nM and 80%.
The like results for `CNC(=O)c1sc(NC(=O)[C@H]2CCC(=O)N2C2CCN(Cc3ccc(Cl)c(C)c3)CC2)nc1C` [Example 190] were, in that order, 6 nM and 100%.
The like results for `CNC(=O)c1cccc(NC(=O)[C@H]2CCC(=O)N2C2CCN(Cc3ccc(F)cc3)CC2)c1` [Example 202] were, in that order, 390 nM and 69%.
Regarding `CNC(=O)c1cc(NC(=O)[C@H]2CCC(=O)N2C2CCN(Cc3ccc(Cl)c(C)c3)CC2)cc(C(=O)NC)c1` [Example 7], the affinity, expressed as Ki, was 7 nM. Also, the inhibition at 1 µM (1 μM test compound) stood at 97%.
The like results for `Cc1cc(CN2CCC(N3C(=O)CC[C@@H]3C(=O)N3CCCc4ccccc43)CC2)ccc1Cl` [Example 15] were, in that order, 1110 nM and 38%.
The like results for `CCOC(=O)c1cc(NC(=O)[C@H]2CCC(=O)N2C2CCN(Cc3ccc(Cl)c(C)c3)CC2)nn1C` [Example 95] were, in that order, 40 nM and 94%.
`Cc1cc(-c2nc[nH]n2)cc(NC(=O)[C@H]2CCC(=O)N2C2CCN(Cc3ccc(Cl)c(C)c3)CC2)n1` [Example 210] returned a Ki of 13 nM.
As for `Cc1cc(CN2CCC(N3C(=O)CC[C@@H]3C(=O)Nc3cccc(-c4ccn(C)n4)c3)CC2)ccc1Cl` [Example 9], the Ki amounted to 12 nM. Further, the inhibition at 1 µM (1 μM test compound) was 95%.
With `Cc1cc(-c2nc[nH]n2)cc(NC(=O)C2CCC(=O)N2C2CCN(Cc3ccc(Cl)c(C)c3)CC2)n1` (stereo not drawn) [Example 210], under “1 μM test compound”, the inhibition at 1 µM worked out at 96%.
Molecule `CNC(=O)N1CCc2cc(NC(=O)[C@H]3CCC(=O)N3C3CCN(Cc4ccc(Cl)c(C)c4)CC3)ccc21` [Example 37] gave a Ki of 175 nM. Further, where the note is “1 μM test compound”, the inhibition at 1 µM was 80%.
In the same order, the values of `Cc1cc(CN2CCC(N3C(=O)N(C)C[C@@H]3C(=O)Nc3cccc(-c4cc[nH]n4)c3)CC2)ccc1Cl` [Example 123] are 34 nM and 95%.
In the same order, the values of `Cc1cc(CN2CCC(N3C(=O)CC[C@H]3C(=O)N3CCc4cc(F)ccc4C3)CC2)ccc1Cl` [Example 62] are 507 nM and 63%.
Take `Cc1cc(CN2CCC(N3C(=O)CC[C@@H]3C(=O)Nc3cc(C(=O)N(C)C)ccn3)CC2)ccc1Cl` [Example 147]: the inhibitory constant (Ki) worked out at 8 nM. Further, the inhibition at 1 µM (1 μM test compound) was 99%.
As for `Cc1cc(CN2CCC(N3C(=O)CC[C@H]3C(=O)NCc3ccnn3C)CC2)ccc1Cl` [Example 69], the “CCR3 % inh @ 1 μM” value (1 μM test compound, 1 µM) stood at 55%.
On to `Cc1cc(CN2C3CCC2CC(N2C(=O)CC[C@@H]2C(=O)Nc2cc(C4CC4)nn2C)C3)ccc1Cl` (stereo partly drawn) [Example 85], for which the Ki turned out to be 350 nM. For the same molecule, the inhibition at 1 µM (1 μM test compound) was 68%.
The like results for `Cc1cc(CN2CCC(N3C(=O)N(C)C[C@H]3C(=O)Nc3cccc(-c4cscn4)c3)CC2)ccc1Cl` [Example 125] were, in that order, 58 nM and 97%.
In the same order, the values of `Cc1cc(CN2CCC(N3C(=O)CC[C@@H]3C(=O)Nc3cc(C(=O)N(C)C)cc(C(=O)N(C)C)c3)CC2)ccc1Cl` [Example 105] are 5 nM and 99%.
The like results for `Cc1cc(CN2CCC(N3C(=O)CC[C@@H]3C(=O)Nc3cc(-n4cccn4)ccn3)CC2)ccc1Cl` [Example 101] were, in that order, 45 nM and 95%.
In the case of `Cc1cc(CN2CCC(N3C(=O)CC[C@@H]3C(=O)Nc3ccc4c(c3)CC(N(C)C)C4)CC2)ccc1Cl` (stereo partly drawn) [Example 64], the Ki turned out to be 545 nM. The inhibition at 1 µM (1 μM test compound) was 60%.
In the same order, the values of `Cc1cc(CN2CCC(N3C(=O)CC[C@@H]3C(=O)N3Cc4ccccc4C3)CC2)ccc1Cl` [Example 63] are 518 nM and 60%.
In the same order, the values of `CNc1nc(-c2cccc(NC(=O)[C@@H]3CN(C)C(=O)N3C3CCN(Cc4ccc(Cl)c(C)c4)CC3)c2)no1` [Example 128] are 96 nM and 87%.
As for `CNC(=O)c1cc(Cl)cc(NC(=O)[C@H]2CCC(=O)N2C2CCN(Cc3ccc(Cl)c(C)c3)CC2)c1` [Example 169], the Ki is 19 nM. For the setting “1 μM test compound”, the inhibition at 1 µM amounted to 99%.
In the case of `Cc1cc(CN2CCC(N3C(=O)CC[C@@H]3C(=O)N3CCc4cccc(Br)c4C3)CC2)ccc1Cl` [Example 54], the affinity, expressed as Ki, was 89 nM. For the same molecule, where the note is “1 μM test compound”, the inhibition at 1 µM worked out at 90%.
In the same order, the values of `Cc1cc(CN2CCC(N3C(=O)N(C)C[C@@H]3C(=O)Nc3cccc(-c4cscn4)c3)CC2)ccc1Cl` [Example 121] are 21 nM and 98%.
The like results for `Cc1cc(CN2CCC(N3C(=O)CC[C@@H]3C(=O)Nc3cccc(-c4nnn(C)n4)c3)CC2)ccc1Cl` [Example 5] were, in that order, 6 nM and 98%.
The like results for `CNC(=O)c1cccc(NC(=O)[C@H]2CCC(=O)N2C2CC3CCC(C2)N3Cc2ccc(Cl)c(C)c2)c1` (stereo partly drawn) [Example 84] were, in that order, 232 nM and 77%.
As for `COc1cc(C(=O)N(C)C)cc(NC(=O)[C@H]2CCC(=O)N2C2CCN(Cc3ccc(Cl)c(C)c3)CC2)n1` [Example 183], the Ki came to 232 nM. For the same molecule, the inhibition at 1 µM (1 μM test compound) stood at 75%.
In the same order, the values of `Cc1cc(CN2CCC(N3C(=O)CC[C@@H]3C(=O)Nc3cccc(N(CC(=O)N(C)C)S(C)(=O)=O)c3)CC2)ccc1Cl` [Example 8] are 9 nM and 99%.
In the same order, the values of `Cc1cc(CN2CCC(N3C(=O)CC[C@H]3C(=O)N3CCc4c(F)ccc(F)c4C3)CC2)ccc1Cl` [Example 57] are 302 nM and 74%.
In the same order, the values of `Cc1cc(CN2C3CCC2CC(N2C(=O)CC[C@@H]2C(=O)Nc2cccc(N(CC(=O)N4CCC4)S(C)(=O)=O)c2)C3)ccc1Cl` (stereo partly drawn) [Example 75] are 30 nM and 97%.
Consider `CCNS(=O)(=O)c1cccc(NC(=O)[C@H]2CCC(=O)N2C2CC3CCC(C2)N3Cc2ccc(Cl)c(C)c2)c1` (stereo partly drawn) [Example 80], for which the inhibition constant (Ki) came out at 55 nM. Moreover, the inhibition at 1 µM (1 μM test compound) was 95%.
In the same order, the values of `Cc1nnc(NC(=O)c2cccc(NC(=O)[C@H]3CCC(=O)N3C3CCN(Cc4ccc(Cl)c(C)c4)CC3)c2)s1` [Example 154] are 14 nM and 98%.
In the same order, the values of `Cc1cc(CN2CCC(N3C(=O)CC[C@@H]3C(=O)N[C@H]3CCN(C(=O)OC(C)(C)C)C3)CC2)ccc1Cl` [Example 14] are 540 nM and 60%.
In the same order, the values of `CN1C[C@H](C(=O)Nc2cc(C3CC3)nn2C)N(C2CCN(Cc3ccc(Cl)c(C(F)(F)F)c3)CC2)C1=O` [Example 199] are 453 nM and 66%.
In the case of `COc1ccc2c(c1)CN(C(=O)[C@@H]1CCC(=O)N1C1CCN(Cc3ccc(Cl)c(C)c3)CC1)CC2` [Example 72], the affinity corresponds to a Ki of 875 nM. Further, where the note is “1 μM test compound”, the inhibition at 1 µM came out at 48%.
The like results for `Cc1cc(CN2CCC(N3C(=O)CC[C@@H]3C(=O)Nc3cc(C(N)=O)cc(C(=O)N(C)C)c3)CC2)ccc1Cl` [Example 107] were, in that order, 13 nM and 99%.
The like results for `CNC(=O)c1cccc(NC(=O)[C@H]2CCC(=O)N2C2CCN(Cc3ccc(C)c(C)c3)CC2)c1` [Example 205] were, in that order, 247 nM and 76%.
`Cc1cc(CN2CCC(N3C(=O)CC[C@@H]3C(=O)N3CCc4ccc([N+](=O)[O-])cc4C3)CC2)ccc1Cl` [Example 74] yielded an inhibition constant Ki of 927 nM. Where the note is “1 μM test compound”, the inhibition at 1 µM was 46%.
`Cc1cc(CN2CCC(N3C(=O)CC[C@@H]3C(=O)Nc3cc(F)cc(C(=O)N(C)C)c3)CC2)ccc1Cl` [Example 176] registered a Ki of 11 nM. For the same molecule, for the setting “1 μM test compound”, the inhibition at 1 µM came out at 100%.
In the same order, the values of `Cc1cc(CN2CCC(N3C(=O)CC[C@H]3C(=O)Nc3ccc4c(c3)CCC(=O)N4)CC2)ccc1Cl` [Example 23] are 18 nM and 95%.
The like results for `Cc1cc(CN2CCC(N3C(=O)CC[C@@H]3C(=O)NCc3cccc4[nH]ccc34)CC2)ccc1Cl` [Example 68] were, in that order, 715 nM and 48%.
In the same order, the values of `CCCCS(=O)(=O)NC1CCCN(C(=O)[C@@H]2CCC(=O)N2C2CCN(Cc3ccc(Cl)c(C)c3)CC2)C1` (stereo partly drawn) [Example 49] are 1180 nM and 41%.
Consider `COc1cc(NC(=O)[C@H]2CCC(=O)N2C2CCN(Cc3ccc(Cl)c(C)c3)CC2)cc(C(=O)N(C)C)c1` [Example 173], for which the affinity, expressed as Ki, was 13 nM. Further, the inhibition at 1 µM (1 μM test compound) stood at 99%.
`Cc1cc(CN2CCC(N3C(=O)CC[C@@H]3C(=O)Nc3cc(C(=O)N(C)CCO)cc(-c4nnnn4C)c3)CC2)ccc1Cl` [Example 186] came in with a Ki of 1 nM. In addition, the inhibition at 1 µM (1 μM test compound) was 99%.

The values are drawn from patent US8653075B2, “Therapeutic methods employing substituted piperidines which are CCR3 antagonists” (Boehringer Ingelheim International GmbH, priority 2009, dated 2014).
